The source of these data is ChEMBL document CHEMBL3862033 (J Med Chem, 2016).

For orientation: inhibition means the relative decrease from the control value, in per cent. A word on the Ki: it is a dissociation constant, usually derived from enzyme kinetics or from competition with a known ligand.

Assay [1] addresses 5-hydroxytryptamine receptor 6 (Homo sapiens) (UniProt P50406). The assay can be described thus: Displacement of [3H]LSD from human 5-HT6 receptor expressed in HEK cell membranes at 10 uM incubated for 90 mins under dark condition by microbeta scintillation counting method relative to control. The note with it: HEK293. A general note: In a radioligand displacement assay an active substance lowers the binding of a labelled ligand.

In assay [2] the target is 5-hydroxytryptamine receptor 1B (Homo sapiens) (UniProt P28222). The assay can be described thus: Displacement of [3H]5-CT from human 5-HT1BR expressed in HEK cell membranes at 10 uM incubated for 90 mins under dark condition by microbeta scintillation counting method relative to control. The following applies: HEK293.
Assay [3] has as its target T1, 5-hydroxytryptamine receptor 3A (Homo sapiens) (UniProt P46098).
T1 sequence (whole entry): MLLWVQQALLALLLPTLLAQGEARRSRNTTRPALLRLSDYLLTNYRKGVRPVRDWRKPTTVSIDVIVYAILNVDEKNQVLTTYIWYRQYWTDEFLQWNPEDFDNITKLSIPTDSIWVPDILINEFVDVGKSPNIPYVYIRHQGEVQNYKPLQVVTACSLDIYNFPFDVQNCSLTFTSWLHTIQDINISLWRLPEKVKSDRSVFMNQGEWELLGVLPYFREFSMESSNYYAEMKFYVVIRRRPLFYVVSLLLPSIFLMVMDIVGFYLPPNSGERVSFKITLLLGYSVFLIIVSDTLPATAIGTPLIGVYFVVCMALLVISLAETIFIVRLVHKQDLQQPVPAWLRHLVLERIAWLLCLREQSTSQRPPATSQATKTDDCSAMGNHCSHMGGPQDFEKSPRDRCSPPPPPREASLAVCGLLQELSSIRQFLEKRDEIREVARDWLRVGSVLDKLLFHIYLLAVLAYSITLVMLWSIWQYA
In words: Displacement of [3H]GR65630 from human 5-HT3 receptor expressed in HEK-T cell membranes at 10 uM incubated for 90 mins under dark condition by microbeta scintillation counting method relative to control.

Assay [4] concerns the target T2, 5-hydroxytryptamine receptor 2C (Homo sapiens) (UniProt P28335).
T2 sequence (whole entry): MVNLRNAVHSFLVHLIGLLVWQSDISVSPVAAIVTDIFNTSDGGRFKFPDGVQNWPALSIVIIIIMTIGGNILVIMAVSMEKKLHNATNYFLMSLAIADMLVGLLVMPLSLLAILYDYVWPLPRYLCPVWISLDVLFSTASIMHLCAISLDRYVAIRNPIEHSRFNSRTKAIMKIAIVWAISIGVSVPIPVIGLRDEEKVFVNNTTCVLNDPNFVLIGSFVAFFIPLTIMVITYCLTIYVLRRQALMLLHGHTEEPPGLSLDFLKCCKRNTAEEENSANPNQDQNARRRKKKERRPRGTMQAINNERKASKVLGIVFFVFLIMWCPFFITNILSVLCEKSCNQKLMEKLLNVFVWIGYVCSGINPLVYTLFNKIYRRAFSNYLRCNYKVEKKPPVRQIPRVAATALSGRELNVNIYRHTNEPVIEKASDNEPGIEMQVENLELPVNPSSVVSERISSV
The assay can be described thus: Displacement of [3H]mesulergine from human 5-HT2CR expressed in Flp-In HEK cell membranes at 10 uM incubated for 90 mins under dark condition by microbeta scintillation counting method relative to control. The following applies: HEK293.

Assay [5] concerns the target T3, 5-hydroxytryptamine receptor 1A (Homo sapiens) (UniProt P08908).
T3 sequence (whole entry): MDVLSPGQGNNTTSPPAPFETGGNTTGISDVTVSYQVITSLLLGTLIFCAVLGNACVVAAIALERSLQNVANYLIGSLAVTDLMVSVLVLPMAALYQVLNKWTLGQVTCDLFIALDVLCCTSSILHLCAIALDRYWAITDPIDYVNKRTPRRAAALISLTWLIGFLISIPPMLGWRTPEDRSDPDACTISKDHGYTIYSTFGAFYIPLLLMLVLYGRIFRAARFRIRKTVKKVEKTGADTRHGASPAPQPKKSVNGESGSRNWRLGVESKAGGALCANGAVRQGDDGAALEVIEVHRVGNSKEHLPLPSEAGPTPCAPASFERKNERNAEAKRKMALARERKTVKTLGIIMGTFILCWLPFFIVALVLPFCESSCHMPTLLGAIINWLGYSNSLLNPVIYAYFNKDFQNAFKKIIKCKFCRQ
In words: Displacement of [3H]WAY100635 from human 5-HT1AR expressed in CHO cell membranes at 10 uM incubated for 90 mins under dark condition by microbeta scintillation counting method relative to control.

In another assay the target is T4, Adenosine receptor A3 (Homo sapiens, UniProt P0DMS8).
T4 sequence (P0DMS8 whole entry): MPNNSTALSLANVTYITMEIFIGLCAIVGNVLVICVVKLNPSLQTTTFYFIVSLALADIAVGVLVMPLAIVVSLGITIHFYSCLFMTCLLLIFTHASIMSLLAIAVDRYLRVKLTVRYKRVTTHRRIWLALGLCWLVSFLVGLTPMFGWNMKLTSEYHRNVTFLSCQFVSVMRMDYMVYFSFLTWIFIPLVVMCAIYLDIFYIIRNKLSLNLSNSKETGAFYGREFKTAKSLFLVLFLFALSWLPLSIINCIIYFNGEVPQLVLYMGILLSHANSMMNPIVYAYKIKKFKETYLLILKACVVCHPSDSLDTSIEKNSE
In words: Displacement of [125l]N 6-(4-amino-3-iodobenzyl)adenosine-5'-N-methyluronamide from recombinant human A3AR expressed in CHO cell membranes after 60 mins by gamma counting method.

The next assay concerns the target T5, Adenosine receptor A1 (Homo sapiens, UniProt P30542).
T5 sequence (P30542 whole entry): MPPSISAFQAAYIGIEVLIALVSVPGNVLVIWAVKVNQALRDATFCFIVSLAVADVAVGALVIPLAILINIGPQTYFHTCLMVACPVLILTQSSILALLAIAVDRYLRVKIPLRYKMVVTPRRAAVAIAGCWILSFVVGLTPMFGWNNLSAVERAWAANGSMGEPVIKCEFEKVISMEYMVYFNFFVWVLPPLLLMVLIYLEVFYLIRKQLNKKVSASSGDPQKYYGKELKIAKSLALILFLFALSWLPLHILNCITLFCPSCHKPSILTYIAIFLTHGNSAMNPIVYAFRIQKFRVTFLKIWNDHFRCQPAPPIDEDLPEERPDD
In words: Displacement of [3H]N6-phenylisopropyladenosine from recombinant human A1AR expressed in CHO cell membranes after 60 mins by liquid scintillation counting method.

Assay [6] concerns the target T6, 5-hydroxytryptamine receptor 2A (Homo sapiens, UniProt P28223). The assay can be described thus: Displacement of [3H]ketanserin from human 5-HT2A receptor expressed in HEK-T cell membranes at 10 uM incubated for 90 mins under dark condition by microbeta scintillation counting method relative to control.
Assay [7] deals with 5-hydroxytryptamine receptor 1E (Homo sapiens) (UniProt P28566). The assay can be described thus: Displacement of [3H]5-HT from human 5-HT1E receptor expressed in HEK cell membranes at 10 uM incubated for 90 mins under dark condition by microbeta scintillation counting method relative to control. The following applies: HEK293.
Assay [8] addresses 5-hydroxytryptamine receptor 4 (Homo sapiens) (UniProt Q13639). In words: Displacement of [3H]GR113808 from human 5-HT4 receptor at 10 uM incubated for 90 mins under dark condition by microbeta scintillation counting method relative to control.
For assay [9], the target named is 5-hydroxytryptamine receptor 1D (Homo sapiens) (UniProt P28221). The assay can be described thus: Displacement of [3H]5-CT from human 5-HT1D receptor expressed in HEK-T cell membranes at 10 uM incubated for 90 mins under dark condition by microbeta scintillation counting method relative to control.
In assay [10] the target is T6, 5-hydroxytryptamine receptor 2A. The assay can be described thus: Displacement of [3H]ketanserin from human 5-HT2A receptor expressed in HEK-T cell membranes incubated for 90 mins under dark condition by microbeta scintillation counting method.
Assay [11] addresses 5-hydroxytryptamine receptor 7 (Homo sapiens) (UniProt P34969). In words: Displacement of [3H]LSD from human 5-HT7A receptor expressed in HEK cell membranes at 10 uM incubated for 90 mins under dark condition by microbeta scintillation counting method relative to control. The note with it: HEK293.
For the next assay, the target named is Adenosine receptor A2a (Homo sapiens, UniProt P29274). In words: Displacement of [3 H]2-[p-(2-carboxyethyl)phenyl-ethylamino]-5'-N-ethylcarboxamidoadenosine from recombinant human adenosine receptor A2A expressed in HEK293 cell membranes after 60 mins by liquid scintillation counting method.
The target in assay [12] is T7, 5-hydroxytryptamine receptor 2C (Homo sapiens, UniProt P28335).
T7 sequence (P28335 whole entry): T2 sequence (whole entry)
The assay can be described thus: Displacement of [3H]mesulergine from human 5-HT2CR expressed in Flp-In HEK cell membranes incubated for 90 mins under dark condition by microbeta scintillation counting method. Set-up: species or system HEK293.

The target of assay [13] is 5-hydroxytryptamine receptor 5A (Homo sapiens) (UniProt P47898). The assay can be described thus: Displacement of [3H]LSD from human 5-HT5A receptor expressed in Flp-In-CHO cell membranes incubated for 90 mins under dark condition by microbeta scintillation counting method relative to control. On the set-up: concentration or dose not given beside the values.
Assay [14] deals with 5-hydroxytryptamine receptor 2B (Homo sapiens, UniProt P41595). The following applies: HEK293, at 10 µM.
Assay [15] in a line: Displacement of [3H]DTG from sigma2 receptor in rat PC12 cells after 90 mins by microbeta scintillation counting method. Type of assay: cell-based. The note with it: pc-12.
The target of assay [16] is T8, Adenosine receptor A3 (Mus musculus) (UniProt Q61618).
T8 sequence (whole entry): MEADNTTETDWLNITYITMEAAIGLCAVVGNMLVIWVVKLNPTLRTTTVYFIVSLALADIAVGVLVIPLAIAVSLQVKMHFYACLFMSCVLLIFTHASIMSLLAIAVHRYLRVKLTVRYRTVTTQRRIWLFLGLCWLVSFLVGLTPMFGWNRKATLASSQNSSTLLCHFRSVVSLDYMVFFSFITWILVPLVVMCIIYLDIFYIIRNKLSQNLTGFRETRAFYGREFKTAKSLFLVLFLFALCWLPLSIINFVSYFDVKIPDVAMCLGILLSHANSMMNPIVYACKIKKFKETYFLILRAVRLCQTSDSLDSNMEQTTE
The assay can be described thus: Agonist activity at recombinant mouse A3AR expressed in HEK293 cells assessed as inhibition of forskolin-stimulated cAMP accumulation at 10 uM after 15 mins relative to adenosine-5'-N-ethyluronamide. Type of assay: functional, cell-based. Background: Cyclic AMP is a second messenger, typically raised through Gs and lowered through Gi signalling.

Each structure is given as a SMILES string.

5-hydroxytryptamine receptor 1D (Homo sapiens), sequence (P28221 whole entry): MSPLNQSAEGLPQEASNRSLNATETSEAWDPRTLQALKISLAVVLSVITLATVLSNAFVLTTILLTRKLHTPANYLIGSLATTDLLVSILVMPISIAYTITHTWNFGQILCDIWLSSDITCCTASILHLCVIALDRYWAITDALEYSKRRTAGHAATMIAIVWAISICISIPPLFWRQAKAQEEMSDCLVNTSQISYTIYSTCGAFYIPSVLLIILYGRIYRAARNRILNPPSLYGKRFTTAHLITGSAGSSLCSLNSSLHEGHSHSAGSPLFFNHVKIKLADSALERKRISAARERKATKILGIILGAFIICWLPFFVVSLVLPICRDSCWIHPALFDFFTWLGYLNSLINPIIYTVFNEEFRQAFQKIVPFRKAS
5-hydroxytryptamine receptor 7 (Homo sapiens), sequence (P34969 whole entry): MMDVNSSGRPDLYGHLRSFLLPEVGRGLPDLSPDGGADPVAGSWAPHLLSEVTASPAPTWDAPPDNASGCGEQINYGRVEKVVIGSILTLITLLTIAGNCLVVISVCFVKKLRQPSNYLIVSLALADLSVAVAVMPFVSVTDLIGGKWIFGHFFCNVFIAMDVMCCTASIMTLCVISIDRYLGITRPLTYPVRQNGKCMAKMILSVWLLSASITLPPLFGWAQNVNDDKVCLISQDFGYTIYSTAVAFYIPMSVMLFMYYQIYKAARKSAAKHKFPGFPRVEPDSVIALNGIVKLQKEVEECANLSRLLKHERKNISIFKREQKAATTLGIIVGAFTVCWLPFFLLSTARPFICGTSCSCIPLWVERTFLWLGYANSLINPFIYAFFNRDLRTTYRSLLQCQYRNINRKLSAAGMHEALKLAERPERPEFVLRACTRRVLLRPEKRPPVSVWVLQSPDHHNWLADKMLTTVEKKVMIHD
T6 sequence (P28223 whole entry): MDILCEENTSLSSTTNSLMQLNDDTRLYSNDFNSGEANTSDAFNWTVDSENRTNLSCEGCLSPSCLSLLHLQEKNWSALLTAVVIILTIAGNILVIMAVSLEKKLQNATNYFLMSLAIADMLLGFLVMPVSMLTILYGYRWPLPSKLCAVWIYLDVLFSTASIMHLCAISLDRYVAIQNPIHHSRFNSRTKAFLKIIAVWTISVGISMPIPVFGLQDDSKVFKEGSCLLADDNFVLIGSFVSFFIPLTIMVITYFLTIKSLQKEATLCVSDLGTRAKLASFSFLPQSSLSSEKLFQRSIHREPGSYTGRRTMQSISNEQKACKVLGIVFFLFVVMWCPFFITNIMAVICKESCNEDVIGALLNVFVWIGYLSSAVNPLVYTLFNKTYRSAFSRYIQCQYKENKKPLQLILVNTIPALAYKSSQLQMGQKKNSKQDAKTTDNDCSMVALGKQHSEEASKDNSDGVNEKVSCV
5-hydroxytryptamine receptor 1B (Homo sapiens), sequence (P28222 whole entry): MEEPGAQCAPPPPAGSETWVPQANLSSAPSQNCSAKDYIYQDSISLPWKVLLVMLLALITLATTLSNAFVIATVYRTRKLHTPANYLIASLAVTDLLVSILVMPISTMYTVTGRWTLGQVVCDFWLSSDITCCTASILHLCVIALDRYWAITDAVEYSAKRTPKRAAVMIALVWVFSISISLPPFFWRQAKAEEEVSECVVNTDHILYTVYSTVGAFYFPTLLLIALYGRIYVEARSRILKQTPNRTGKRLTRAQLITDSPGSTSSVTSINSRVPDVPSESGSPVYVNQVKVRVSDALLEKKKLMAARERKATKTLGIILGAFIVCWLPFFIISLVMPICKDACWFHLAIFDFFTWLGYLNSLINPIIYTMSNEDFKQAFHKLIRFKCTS
Adenosine receptor A2a, sequence (P29274 whole entry): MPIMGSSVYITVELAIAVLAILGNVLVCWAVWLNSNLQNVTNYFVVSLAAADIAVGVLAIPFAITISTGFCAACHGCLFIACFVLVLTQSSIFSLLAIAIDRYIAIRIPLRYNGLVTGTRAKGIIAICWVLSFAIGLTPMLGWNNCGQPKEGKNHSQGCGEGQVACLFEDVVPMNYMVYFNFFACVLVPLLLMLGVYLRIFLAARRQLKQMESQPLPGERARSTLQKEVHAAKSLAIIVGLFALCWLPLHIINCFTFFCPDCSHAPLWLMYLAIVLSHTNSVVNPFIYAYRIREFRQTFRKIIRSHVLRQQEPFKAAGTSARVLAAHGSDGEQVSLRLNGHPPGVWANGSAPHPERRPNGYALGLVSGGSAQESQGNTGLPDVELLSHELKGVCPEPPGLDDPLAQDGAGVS
5-hydroxytryptamine receptor 1E (Homo sapiens), sequence (P28566 whole entry): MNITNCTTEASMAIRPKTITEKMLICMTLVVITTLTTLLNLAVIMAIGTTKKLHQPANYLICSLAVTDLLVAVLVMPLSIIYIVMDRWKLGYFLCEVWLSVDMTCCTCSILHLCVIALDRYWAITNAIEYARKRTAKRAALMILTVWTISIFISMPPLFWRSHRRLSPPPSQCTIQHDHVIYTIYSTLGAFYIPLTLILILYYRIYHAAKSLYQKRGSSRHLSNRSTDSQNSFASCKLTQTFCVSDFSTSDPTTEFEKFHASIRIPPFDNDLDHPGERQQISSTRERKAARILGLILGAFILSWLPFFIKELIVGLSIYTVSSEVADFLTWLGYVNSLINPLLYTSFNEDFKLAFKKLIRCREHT
5-hydroxytryptamine receptor 4 (Homo sapiens), sequence (Q13639 whole entry): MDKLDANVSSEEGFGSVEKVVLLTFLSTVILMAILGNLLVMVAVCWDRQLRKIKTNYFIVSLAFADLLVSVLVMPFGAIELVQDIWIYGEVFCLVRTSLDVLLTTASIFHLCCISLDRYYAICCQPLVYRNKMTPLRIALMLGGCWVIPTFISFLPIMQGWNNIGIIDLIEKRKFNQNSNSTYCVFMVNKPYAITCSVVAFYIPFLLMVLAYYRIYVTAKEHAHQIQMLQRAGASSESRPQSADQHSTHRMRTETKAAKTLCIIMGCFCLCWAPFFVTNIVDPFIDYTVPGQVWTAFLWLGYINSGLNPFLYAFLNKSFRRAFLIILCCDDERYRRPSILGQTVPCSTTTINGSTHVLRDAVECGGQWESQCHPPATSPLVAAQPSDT
5-hydroxytryptamine receptor 5A (Homo sapiens), sequence (P47898 whole entry): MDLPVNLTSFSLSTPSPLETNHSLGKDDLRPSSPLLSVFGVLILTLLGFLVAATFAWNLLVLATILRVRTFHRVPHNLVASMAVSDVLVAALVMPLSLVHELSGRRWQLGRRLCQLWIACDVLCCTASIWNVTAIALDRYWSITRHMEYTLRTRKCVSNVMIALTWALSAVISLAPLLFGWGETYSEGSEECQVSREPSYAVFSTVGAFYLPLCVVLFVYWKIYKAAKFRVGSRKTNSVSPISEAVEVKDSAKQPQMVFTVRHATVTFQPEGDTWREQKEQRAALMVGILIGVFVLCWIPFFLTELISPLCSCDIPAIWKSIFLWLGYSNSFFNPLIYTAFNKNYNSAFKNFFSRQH
5-hydroxytryptamine receptor 6 (Homo sapiens), sequence (P50406 whole entry): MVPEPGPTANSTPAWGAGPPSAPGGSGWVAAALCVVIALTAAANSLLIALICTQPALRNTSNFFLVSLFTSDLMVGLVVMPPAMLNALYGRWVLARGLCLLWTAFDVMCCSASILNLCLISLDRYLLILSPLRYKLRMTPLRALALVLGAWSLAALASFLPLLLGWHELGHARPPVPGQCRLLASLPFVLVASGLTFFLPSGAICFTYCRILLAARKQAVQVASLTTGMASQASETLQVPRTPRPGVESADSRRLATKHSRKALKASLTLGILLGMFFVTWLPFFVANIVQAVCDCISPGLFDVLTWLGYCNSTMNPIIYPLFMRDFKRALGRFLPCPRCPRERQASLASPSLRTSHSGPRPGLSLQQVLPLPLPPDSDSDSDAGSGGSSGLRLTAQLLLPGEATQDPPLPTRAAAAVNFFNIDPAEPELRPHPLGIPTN
5-hydroxytryptamine receptor 2B, sequence (P41595 whole entry): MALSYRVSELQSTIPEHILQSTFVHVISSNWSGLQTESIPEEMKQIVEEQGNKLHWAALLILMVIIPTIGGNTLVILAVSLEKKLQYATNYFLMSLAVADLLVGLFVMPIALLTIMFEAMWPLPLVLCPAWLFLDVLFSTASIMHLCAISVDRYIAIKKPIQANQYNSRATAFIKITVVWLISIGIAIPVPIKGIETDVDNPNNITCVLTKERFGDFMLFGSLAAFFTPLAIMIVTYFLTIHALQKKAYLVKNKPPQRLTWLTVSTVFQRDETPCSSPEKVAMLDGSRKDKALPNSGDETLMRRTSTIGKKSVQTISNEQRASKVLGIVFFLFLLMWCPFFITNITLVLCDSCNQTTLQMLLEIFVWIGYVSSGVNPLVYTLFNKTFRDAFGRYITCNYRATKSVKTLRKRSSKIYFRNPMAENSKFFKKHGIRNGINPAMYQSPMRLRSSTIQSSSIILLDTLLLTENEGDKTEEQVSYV

As for `CCC(CC)Nc1nc(Cl)nc2c1ncn2[C@H]1[C@H](O)[C@H](O)[C@]2(CO)C[C@H]12`, the inhibition in assay [1] is less than 50%; in [2] it was less than 50%; in assay [3] it was less than 50%; in [4] it was greater than 50%; in assay [5], less than 50%; in assay [6], 12%. For the same molecule, the inhibition in [7], in [8], in assay [9], in assay [11] and in [13] was less than 50% throughout. The Ki on Adenosine receptor A3 was 1200 nM; on Adenosine receptor A1, 112 nM; in assay [10] it was greater than 10000 nM; at Adenosine receptor A2a it was 1750 nM; in assay [12], 703 nM.
On to `Nc1ncnc2c1ncn2[C@@H]1O[C@H](C(=O)NC2CC2)[C@@H](O)[C@H]1O`, for which the inhibition in assay [1] was less than 50%; in assay [2] it was less than 50%; in assay [3] it was less than 50%; in assay [4] it was less than 10%; in assay [14], less than 10%; in [5], less than 50%. Further, the inhibition was less than 10% in assay [6]; less than 50% in assay [7]; less than 50% in assay [8]; less than 50% in assay [9]; less than 50% in assay [11]; less than 50% in assay [13]. Besides, the values for the Ki in assay [15] and in assay [10] were 1400 nM and greater than 10000 nM, respectively.
As to `CNc1nc(Cl)nc2c1ncn2[C@H]1[C@H](O)[C@H](O)[C@]2(CO)C[C@H]12`, the inhibition in assay [1] was less than 50%; in assay [2], less than 50%; in assay [3] it was less than 50%; in [4] it was greater than 50%; in [5] it was less than 50%; in assay [6], less than 10%. Moreover, the inhibition in assay [7], in [8], in assay [9], in assay [11] and in assay [13] was less than 50% each time. In addition, the Ki in [15] was 2220 nM; in assay [10], greater than 10000 nM.
As to `CC[C@H](Nc1nc(Cl)nc2c1ncn2[C@H]1[C@H](O)[C@H](O)[C@]2(CO)C[C@H]12)C1CC1`, the inhibition in assay [1] is less than 50%; in [2], less than 50%; in assay [3], less than 50%; in assay [4], greater than 50%; in assay [5] it was less than 50%; in assay [6], less than 10%. For the same molecule, the inhibition in [7], in [8], in [9], in [11] and in [13] was less than 50% each time. The Ki on Adenosine receptor A1 was 117 nM; in assay [10], greater than 10000 nM; at Adenosine receptor A2a it was 2950 nM; in assay [12], 251 nM.
Turning to `OC[C@@]12C[C@@H]1[C@@H](n1cnc3c(N[C@H](C4CCC4)C4CC4)nc(Cl)nc31)[C@H](O)[C@@H]2O`, the inhibition was less than 50% in assay [1]; less than 50% in assay [2]; less than 50% in assay [3]; greater than 50% in assay [4]; less than 50% in [5]; less than 10% in assay [6]. The inhibition in [7], in [8], in assay [9], in assay [11] and in assay [13] was less than 50% throughout. Besides, the inhibition constant (Ki) at Adenosine receptor A1 was 298 nM; in [10], greater than 10000 nM; at Adenosine receptor A2a it was 2690 nM; in assay [12], 298 nM.
`CCNC(=O)[C@H]1O[C@@H](n2cnc3c(N)ncnc32)[C@H](O)[C@@H]1O` [NECA]: the inhibition in [1], in assay [2], in assay [3], in [5], in assay [7] and in [8] was less than 50% in each case. In addition, the inhibition in assay [9], in assay [11] and in assay [13] was less than 50% throughout. In assay [16], the Imax is 100%. In addition, in [10], the inhibitory constant (Ki) was greater than 10000 nM.
